According to patent publication US5349127A, “Expression of herbicide metabolizing cytochromes P450” (priority 1992, dated 1994):

What was measured:
[1] = tested on: S. lividans pCAO200SU1-FeS-B#9; assay: Sulfonylurea metabolism by washed cell suspension (Examples 6-9); format: in vitro ADME, Streptomyces lividans; details: substrate 10006
Method: (§1) Herbicides and their metabolites are measured by HPLC as described by Romesser et al., BBRC 140: 650-659 (1986), herein incorporated by reference, except that 0.1% H3 PO4 is used in both solvents. Chromatographic identity and quantitation of the herbicides and their resulting metabolites is determined by comparing them chromatographically with authentic standard compounds. Identity of the resulting metabolites is also confirmed by UV spectroscopy.
A 100 ml culture of S. griseolus ATCC 11796 in sporulation broth and a 50 ml culture of S. lividans transformed with pCAO400 in YEME broth were prepared and incubated for 24 hours as described. At that time, the S. griseolus culture was split into two 50 ml aliquots into two separate flasks and 25 ml of fresh sporulation broth was added to each and 9 mg of […] was added to one of these cultures to induce cytochrome P450SU1 expression. Fresh YEME broth (25 ml) was added to the S. lividans culture. After an additional 6 hours growth at 30° C., the cells in each culture were harvested as described above, washed twice with MOPS (50 mM, pH 7.2) and recentrifuged. The cell pellets were resuspended in four cell volumes of MOPS (50 mM, pH 7.2) containing 0.2% glucose and about 100 μg/ml of 10004. These cell suspensions were incubated at 30° C. with shaking and aliqouts were taken at 2 and 5.5 hours. The supernatant of each aliquot was analyzed by HPLC and the concentrations of the sulfonylurea compound 10004 and its metabolite 10005 were determined.
S. lividans transformed respectively with pCAO200SU1-FeS-B#9, pCAO200SU#112and pCAO200 were cultured for 36 hours in 400 ml of YEME broth at 30° C. S. griseolus ATCC 11796 was similarly cultured in 400 ml of sporulation broth. Six hours before harvesting the cells, 150 ml of fresh YEME broth was added to the S. lividans cells, and the S. griseolus cells were split into two 200 ml cultures with 100 ml of fresh sporulation broth added to each. 10001 (36 mg) was added to one of the two S. griseolus cultures to induce cytochrome P450SU1. […]

[2] = tested on: S. lividans pCAO200SU1#12; assay: as above; format: in vitro ADME, Streptomyces lividans; details: substrate 10006
Method: as §1, with “spectroscopy. […]” for “spectroscopy.”
(§2) S. lividans transformed respectively with pCAO200SU1-FeS-B#9, pCAO200SU#112and pCAO200 were cultured for 36 hours in 400 ml of YEME broth at 30° C. S. griseolus ATCC 11796 was similarly cultured in 400 ml of sporulation broth. Six hours before harvesting the cells, 150 ml of fresh YEME broth was added to the S. lividans cells, and the S. griseolus cells were split into two 200 ml cultures with 100 ml of fresh sporulation broth added to each. 10001 (36 mg) was added to one of the two S. griseolus cultures to induce cytochrome P450SU1. The cells were prepared as described above in Example 5 and the concentrations of the sulfonylurea compound 10006 and its metabolites 10007, 10008 or 10009 were determined.

S. lividans pCAO200 = assay: as above; format: in vitro ADME, Streptomyces lividans; details: substrate 10006
Method: as §1, with “spectroscopy. […]” for “spectroscopy.”
as §2

[3] = tested on: transformed tobacco seedlings; assay: Kanamycin resistance of progeny of transformed tobacco (Example 22); format: in vivo, Nicotiana tabacum
Method: Growth medium was prepared from Murishige minimal organics medium (Gibco Laboratories, Grand Island, N.Y.), 8 g/l agar, supplemented with T vitamins (50 ppb biotin, 0.5 ppm pyridoxine HCl, 0.5 ppm thiamine HCl, 5 ppm nicotinic acid, 0.5 ppm folic acid, 2 ppm glycine, 100 ppm myo-inositol), sterilized and placed into sterile PlantCon plant tissue culture containers (Flow Laboratories, McLean, Va.). Tobacco seed obtained from the self-pollination of the primary transformants was surface sterilized by a treatment of not more than 30 min in 20% chlorine bleach, 0.1% sodium dodecyl sulfate, followed by rinsing in distilled water, and placed on the surface of the medium in the sterile containers. Following this treatment, the seed was allowed to germinate and grow under illumination (100 microeinsteins·m^-2 ·s^-1), at 22° C.
The number of loci where t-DNA was incorporated into the genome of the tobacco was determined by segregation analysis of kanamycin resistance in the next generation of progeny. Seed from the self pollination of the primary transformants was grown as described above on medium supplemented with 200 ppm kanamycin sulfate (Sigma). After 21 days, resistant (transformed) plants were unaffected compared to control plants, whereas sensitive plants were smaller, partially chlorotic, and poorly rooted. Determination of the number of genetic loci of the primary transformants was based on the segregation of the kanamycin resistance trait.
Copy number determination is from kanamycin sensitive segregation analysis of about 100 seed.

[4] = tested on: Arabidopsis thaliana seedlings; assay: Seed germination assay of transgenic Arabidopsis (Example 26); format: in vivo; details: Kanamycin 50 mg/l
Method: T2 seed was harvested from selected putative transformants and sown on GM medium containing 50 mg/l kanamycin and that containing 5 ppb 10015. Plates were sealed with filter tape, cold treated for 2 or more days at 4° C., and then incubated for 10 to 20 days at 23° C. under constant illumination as described above. Seedlings were scored as resistant (green, true leaves develop) and sensitive (no true leaves develop). […] The percent of resistant seedlings is inversely proportional with the two selections. Kanamycin is a positive selection for those seedlings that carry the foreign DNA.
Selected T2 seedlings that were kanamycin resistant were transplanted to soil and were grown to maturity at 21° C. daytime (14 hours) 18° C. nighttime (10 hours) at 65-80% relative humidity. T3 seed was collected, sterilized, and germinated on GM medium containing 50 mg/l kanamycin and that containing 5 ppb 10015. Plates were sealed with filter tape, cold treated for 2 or more days at 4° C., and then incubated for 10 to 20 days at 23° C. under constant illumination as described above. Two of the six plants produced seed that was 100% resistant to kanamycin and 100% sensitive to 10015; they are homozygous for the inserted DNA. The other four parents are heterozygous and show an inverse proportion of kanamycin and 10015 resistant seedlings. […] Therefore, seedlings expressing the P450SU1 gene can be negatively selected.
Germination assays of homozygous seed on various concentrations of 10015 were performed to assay the relative sensitivity to 10015 produced by the three different promoters and between independent transformants. Seed was sterilized, sown on GM medium with 0, 0.5, 1, 2, 5, 10 and 20 ppb 10015, incubated, and scored as described above. In addition, seedlings are rated on a scale of one to three for the amount of growth.
Over 500 seed that are homozygous for the P450SU1 coding region were sown on the same plates. The plates were sealed, cold-treated, and incubated as previously described. […] Wild type seedlings were unaffected by the dying transformed seedlings. In addition, when greater than 10,000 seed of a homozygous Cab-SU111 plant was sown on GM medium with 10 ppb 10015, then cold-treated and incubated as described above, eighteen seedlings were resistant to 10015 and were unaffected by neighboring seedlings.

Structure (SMILES): COC(=O)c1ccccc1S(=O)(=O)NC(=O)Nc1nc(CO)nc(OC)n1 [compound 10009, N-[(4-methoxy-6-hydroxymethyl-1,3,5-triazin-yl)aminocarbony1]-2-methoxycarbonylbenzenesulfonamide]
- concentration in supernatant ([1]; 2 h): 15000 nM
- concentration in supernatant ([1]; 4 h): 33000 nM
- concentration in supernatant ([1]; 6 h): 49000 nM
- concentration in supernatant ([2]; 2 h): 0 nM
- concentration in supernatant ([2]; 4 h): 1000 nM
- concentration in supernatant ([2]; 6 h): 1000 nM
- concentration in supernatant (S. lividans pCAO200; 2 h): 0 nM
- concentration in supernatant (S. lividans pCAO200; 4 h): 0 nM
- concentration in supernatant (S. lividans pCAO200; 6 h): 0 nM

Structure (SMILES): COC(=O)c1ccccc1S(=O)(=O)NC(=O)Nc1nc(C)nc(O)n1 [compound 10007, N-[(4-hydroxy-6-methyl-1,3,5-triazinyl)aminocarbonyl]-2-methoxycarbonylbenzenesulfonamide]
- concentration in supernatant ([1]; 2 h): 12000 nM
- concentration in supernatant ([1]; 4 h): 21000 nM
- concentration in supernatant ([1]; 6 h): 30000 nM
- concentration in supernatant ([2]; 2 h): 2000 nM
- concentration in supernatant ([2]; 4 h): 2000 nM
- concentration in supernatant ([2]; 6 h): 2000 nM
- concentration in supernatant (S. lividans pCAO200; 2 h): 4000 nM
- concentration in supernatant (S. lividans pCAO200; 4 h): 1000 nM
- concentration in supernatant (S. lividans pCAO200; 6 h): 1000 nM

Structure (SMILES): NC[C@H]1O[C@H](O[C@H]2[C@H](O)[C@@H](O[C@H]3O[C@H](CO)[C@@H](O)[C@H](N)[C@H]3O)[C@H](N)C[C@@H]2N)[C@H](O)[C@@H](O)[C@@H]1O [Kanamycin, reference compound]
- Kanamycin Resistant (plants demonstrating result/total plants) ([3]; AGS502 (Control)): 6/9
- Kanamycin Resistant (plants demonstrating result/total plants) ([3]; SuFe21.2): 7/10
- Kanamycin Resistant (plants demonstrating result/total plants) ([3]; SuFe21.5): 8/10
- Kanamycin Resistant (plants demonstrating result/total plants) ([3]; SuFe21.6): 9/10
- Kanamycin Resistant (plants demonstrating result/total plants) ([3]; SuFe21.7): 7/10
- Kanamycin Resistant (plants demonstrating result/total plants) ([3]; SuFe21.8): 8/9
- Kanamycin Resistant (plants demonstrating result/total plants) ([3]; SuFell.1): 7/9
- Kanamycin Resistant (plants demonstrating result/total plants) ([3]; SuFell.11): 7/8
- Kanamycin Resistant (plants demonstrating result/total plants) ([3]; SuFell.3): 5/10
- Kanamycin Resistant (plants demonstrating result/total plants) ([3]; SuFell.4): 7/10
- Kanamycin Resistant (plants demonstrating result/total plants) ([3]; SuFell.7): 9/10
- Kanamycin Resistant (plants demonstrating result/total plants) ([3]; SuFell.8): 10/10
- #R number of resistant seedlings ([4]; T2 seed ID 12-1, pCab-SU111): 11
- #S number of sensitive seedlings ([4]; T2 seed ID 12-1, pCab-SU111): 6
- % R percent of seedlings which are resistant ([4]; T2 seed ID 12-1, pCab-SU111): 65%
- #R number of resistant seedlings ([4]; T2 seed ID 12-2, pCab-SU111): 0
- #S number of sensitive seedlings ([4]; T2 seed ID 12-2, pCab-SU111): 12
- % R percent of seedlings which are resistant ([4]; T2 seed ID 12-2, pCab-SU111): 0%
- #R number of resistant seedlings ([4]; T2 seed ID 12-4, pCab-SU111): 13
- #S number of sensitive seedlings ([4]; T2 seed ID 12-4, pCab-SU111): 18
- % R percent of seedlings which are resistant ([4]; T2 seed ID 12-4, pCab-SU111): 42%
- #R number of resistant seedlings ([4]; T2 seed ID 12-5, pCab-SU111): 0
- #S number of sensitive seedlings ([4]; T2 seed ID 12-5, pCab-SU111): 20
- % R percent of seedlings which are resistant ([4]; T2 seed ID 12-5, pCab-SU111): 0%
- #R number of resistant seedlings ([4]; T2 seed ID 12-6, pCab-SU111): 15
- #S number of sensitive seedlings ([4]; T2 seed ID 12-6, pCab-SU111): 9
- % R percent of seedlings which are resistant ([4]; T2 seed ID 12-6, pCab-SU111): 62%
- #R number of resistant seedlings ([4]; T2 seed ID 12-7, pCab-SU111): 21
- #S number of sensitive seedlings ([4]; T2 seed ID 12-7, pCab-SU111): 7
- % R percent of seedlings which are resistant ([4]; T2 seed ID 12-7, pCab-SU111): 75%
- #R number of resistant seedlings ([4]; T2 seed ID 12-8, pCab-SU111): 6
- #S number of sensitive seedlings ([4]; T2 seed ID 12-8, pCab-SU111): 5
- % R percent of seedlings which are resistant ([4]; T2 seed ID 12-8, pCab-SU111): 55%
- #R number of resistant seedlings ([4]; T2 seed ID 12-9, pCab-SU111): 13
- #S number of sensitive seedlings ([4]; T2 seed ID 12-9, pCab-SU111): 3
- % R percent of seedlings which are resistant ([4]; T2 seed ID 12-9, pCab-SU111): 81%
- #R number of resistant seedlings ([4]; T2 seed ID 12-10, pCab-SU111): 0
- #S number of sensitive seedlings ([4]; T2 seed ID 12-10, pCab-SU111): 21
- % R percent of seedlings which are resistant ([4]; T2 seed ID 12-10, pCab-SU111): 0%
- #R number of resistant seedlings ([4]; T2 seed ID 12-11, pCab-SU111): 0
- #S number of sensitive seedlings ([4]; T2 seed ID 12-11, pCab-SU111): 9
- % R percent of seedlings which are resistant ([4]; T2 seed ID 12-11, pCab-SU111): 0%
- #R number of resistant seedlings ([4]; T3 seed ID 12-1-1, pCab-SU111): 184
- #S number of sensitive seedlings ([4]; T3 seed ID 12-1-1, pCab-SU111): 0
- % R percent of seedlings which are resistant ([4]; T3 seed ID 12-1-1, pCab-SU111): 100%
- #R number of resistant seedlings ([4]; T3 seed ID 12-1-2, pCab-SU111): 191
- #S number of sensitive seedlings ([4]; T3 seed ID 12-1-2, pCab-SU111): 0
- % R percent of seedlings which are resistant ([4]; T3 seed ID 12-1-2, pCab-SU111): 100%
- #R number of resistant seedlings ([4]; T3 seed ID 12-1-3, pCab-SU111): 136
- #S number of sensitive seedlings ([4]; T3 seed ID 12-1-3, pCab-SU111): 41
- % R percent of seedlings which are resistant ([4]; T3 seed ID 12-1-3, pCab-SU111): 77%
- #R number of resistant seedlings ([4]; T3 seed ID 12-1-4, pCab-SU111): 98
- #S number of sensitive seedlings ([4]; T3 seed ID 12-1-4, pCab-SU111): 39
- % R percent of seedlings which are resistant ([4]; T3 seed ID 12-1-4, pCab-SU111): 72%
- #R number of resistant seedlings ([4]; T3 seed ID 12-1-5, pCab-SU111): 161
- #S number of sensitive seedlings ([4]; T3 seed ID 12-1-5, pCab-SU111): 56
- % R percent of seedlings which are resistant ([4]; T3 seed ID 12-1-5, pCab-SU111): 74%
- #R number of resistant seedlings ([4]; T3 seed ID 12-1-6, pCab-SU111): 254
- #S number of sensitive seedlings ([4]; T3 seed ID 12-1-6, pCab-SU111): 75
- % R percent of seedlings which are resistant ([4]; T3 seed ID 12-1-6, pCab-SU111): 77%
- #R number of resistant seedlings ([4]; WT): 0
- #S number of sensitive seedlings ([4]; WT): 77
- % R percent of seedlings which are resistant ([4]; WT): 0%
